Reference: patent publication US20260131007A1, “Mannose 6-Phosphate Receptor Binding Compounds for the Degradation of Extracellular Proteins” (Avilar Therapeutics, Inc., priority 2023, published 2026)
Several values for one entry are separate records, joined by “and”; a condition that tells them apart may be missing. Identical values can stand only once. Like-named read-outs stand apart in the source and are kept apart here. Bridge positions count the residues as written; N and C are the ends. Square brackets hold non-standard residues; d marks the D form.

B1: Compound 2 (peptide)
peptide: cyclo(ELVWCT[dP]PDCAWHLG)
modifications: disulfide 5-10; not fully specified (residue 8); also: trivalent linker structure not given here
B2: Compound 5 (peptide)
peptide: cyclo(ELVWCT[dP]PDCAWHLG)
modifications: disulfide 5-10; not fully specified (residue 8); also: trivalent linker structure not given here
B3: Compound 8 (peptide)
peptide: cyclo(ELVWCT[dP]PDCAWHLG)
modifications: disulfide 5-10; not fully specified (residue 8); also: one triazole-linked A20 group on the PEG8 linker
B4: Compound 12 (peptide)
peptide: cyclo(ELVWCT[dP]PDCAWHLG)
modifications: disulfide 5-10; not fully specified (residue 8); also: one triazole-linked A83 group on the PEG8 linker

Experiments:
[1] = tested on: IgG; test: Uptake and degradation in K562 cells (Western blot); assay type: cell-based, human; details: K562 cells treated with compound and IgG; FIG. 14-17
Procedure: On day one, cells were harvested, counted, and seeded 1 million/well in 6 well plates for each cell line. On day two, cells were treated with compounds and IgG (Sigma, Cat #14506 dissolved in medium). Treated cells were washed three times with PBS, followed by addition of 200 μL of RIPA buffer (+HALT protease and phosphatase inhibitors) per well. Lysates were left on ice for 5 minutes then were collected into microcentrifuge tubes using a cell scraper. Lysates were then kept on a shaker for 30-60 minutes at 4° C. followed by centrifugation at 14,000 rpm at 4° C. for 15 minutes. Then, supernatants were transferred to fresh tubes and total protein concentration of each sample was determined using Pierce BCA kit. Next, 25 ug total protein of each sample was resolved on a 4-20% gels and transferred to PVDF membranes. Membranes were blocked in TBST+5% milk (made fresh) for one hour while shaking at room temperature. Then, the first antibody was added in TBST+5% milk at 4° C. overnight: a) Rabbit anti-human IgG, Abcam; Cat #ab181236-1:1000, b) anti-β-actin, Cell signaling Tech, Cat #3700S)-1:3000. On the next day, membranes were washed with TBST 10 minutes each for three times. Later, the second antibody was added in TBST+5% milk at room temperature over one hour: a) IRDye 800CW Goat anti Rabbit IgG, Licor, Cat #926-32211)-1:10,000; b) IRDye 680RD Goat anti Mouse IgG (Licor Cat #926-68078)-1:10,000. Then, membranes were washed with TBST 10 minutes each for three times. The results were detected by Licor. Data from the uptake and degradation assay is shown in FIG. 14, FIG. 15, FIG. 16, and FIG. 17.

[2] = tested on: K562 cells; test: Ternary complex formation (TCF) in K562 cells, flow cytometry with AF488-labeled human IgG; assay type: cell-based; details: AF488-labeled human IgG 300 nM, 4° C., 1 hour
Procedure: K562 cells were seeded in 96-well assay plate using K562 cell medium, then compounds and AF488-labeled human IgG (final concentration of 300 nM) were added at 4° C. and incubated for 1 hour. Afterwards, the cells were washed once with 1×PBS+0.1% BSA (Cold) and centrifuged at 1000 rpm for 5 minutes. Next, cells were re-suspended in 150 μL 1×PBS+0.1% BSA and ran flow cytometry on iQue® Screener PLUS.

[3] = molecular target: T1, hIGF-IIR and IgG1 (ternary complex) (Homo sapiens, UniProt P01857+P11717); test: HTRF-based ternary complex formation assay for hIGF-IIR targeting Extracellular Protein Degraders; assay type: binding
T1 construct: purchased R&D Systems 6418-GR
Description: The ternary complex formation assay is designed to identify and determine the potency of Extracellular Protein Degrader molecules which can induce the formation of ternary complex between the Extracellular Protein Degrader hIGF-IIR. Titrating Extracellular Protein Degrader to fixed amount of hIGF-IIR results in a bell-shaped curve (except molecules whose binary complex affinity between Extracellular Protein Degrader and hIGF-IIR). The peak mean represents Extracellular Protein Degrader concentration at which maximum ternary complex is formed. Too much or too little Extracellular Protein Degrader leads to decreased ternary complex formation due to formation of binary complex (Hook effect). Dose response of Extracellular Protein Degrader compounds (16-point 3-fold dilution series, 100X) were prepared by Echo Acoustic Liquid Handler (Beckman Coulter Life Sciences) using 384-well LDV microplate. Then 200 nL of the solutions were transferred to an OptiPlate 384-well microplate (PerkinElmer, 6007290). To the assay plate, 10 μL working solution containing 60 nM of Biotinylated-IgG1 (Viva 20211108) and 60 nM of His-tagged hIGF-IIR (R&D Systems, 6418-GR) in assay buffer 50 mM Tris, pH 7.5, 150 mM NaCl, 50 mM CaCl2, 0.01% Tween-20 were added. The plate was incubated for 60 min at room temperature with gentle shaking to allow molecular interaction to reach equilibration. Following this, 10 μL of HTRF detection solution containing 15 nM Streptavidin-d2 (PerkinElmer, 610SADLA) and 0.7 nM MAb Anti 6HIS—Tb cryptate (PerkinElmer, 61HISTLA) in PPI Terbium detection buffer (PerkinElmer, 61DB10RDF) were added. The assay plate was incubated at room temperature with gentle shaking for 60 min to allow HTRF signal to develop. The plate was gently spun on a centrifuge then placed on an EnVision plate reader (Perkin Elmer, EnVision 2104) to read fluorescence ratio of 665 nm/615 nm. Data were analyzed by fitting with Bell-shaped non-linear regression model using GraphPad Prism (GraphPad Software, LLC; version 9.4.1). Mean fluorescence intensity is graphed versus compound concentration and the EC50 for TCF is calculated from the inflection point of the curve (GraphPad).

[4] = tested on: human IgG (hIgG); test: DMPK study: degradation of coadministered human IgG in rats; assay type: in vivo; details: male SD rats, IgG 200 mg/kg IV, compound IV an hour later; FIG. 11, FIG. 12
Procedure: The dose formulation of IgG at 200 mg/kg was administered via IV injection to male SD rats, and Compound 5 was administered via IV injection an hour later (after IgG dosing). About 0.2 mL of blood was collected via jugular vein at each time point and was transferred into pre-cooled low binding EP tubes containing 4 μL of K2-EDTA (0.5 M) as anti-coagulant placed on wet ice. After blood was collected, the samples were processed for plasma by centrifugation at approximately 4° C., 3200 g for 10 minutes, the plasma was obtained within 30 minutes of blood collection. Then the plasma was transferred to two clean low binding EP tubes (50 μL each, one for PK, one for PD) and quickly frozen over dry ice and kept below −60° C. or lower for LC-MS/MS analysis. Plasma concentration versus time data was plotted in graph and analyzed by non-compartmental approaches using the Phoenix WinNonlin 6.3 software program. Related PK parameters were calculated according to dosing route, e.g. CL, Vdss and C0 for intravenous administration, Cmax, Tmax or % F for extravascular administration, and T1/2, AUC(0-1), AUC(0-inf), MRT(0-1), MRT(0-inf) for all routes. The quantification of human IgG concentration in animal plasma was conducted using human IgG ELISA kit. Plotted pharmacokinetic and pharmacodynamic data can be found in FIG. 10, FIG. 11, FIG. 12, and FIG. 13.

[5] = molecular target: AF488-labeled human IgG (human); test: flow cytometry, ternary complex formation on K562 cells at 4 C, compound + 300 nM AF488-labelled human IgG; grade read by the legend '<50 nM = ***'
[6] = molecular target: Biotinylated-IgG1 (Viva 20211108); test: HTRF ternary complex formation: compound titrated into 60 nM biotinylated IgG1 + 60 nM His-tagged hIGF-IIR (R&D 6418-GR); grade read by the legend '<50 nM = ***'
[7] = molecular target: AF488-labeled human IgG (human); test: flow cytometry, ternary complex formation on K562 cells at 4 C, compound + 300 nM AF488-labelled human IgG; grade read by the legend '50 nM < IC50 < 250 nM = **'

Molecule	degradation of IgG (gel electrophoresis image) [1]	EC50 [2] [nM]	EC50 [3] [nM]	EC50 [5] [nM]	EC50 [6] [nM]	other results
CC(C)C[C@H]1NC(=O)[C@H](Cc2c[nH]cn2)NC(=O)[C@H](Cc2c[nH]c3ccccc23)NC(=O)[C@H](C)NC(=O)[C@@H]2CSSC[C@H](NC(=O)[C@H](Cc3c[nH]c4ccccc34)NC(=O)[C@@H](C(C)C)NC(=O)[C@@H](CC(C)C)NC(=O)[C@H](CCC(=O)O)NC(=O)CNC1=O)C(=O)N[C@H]([C@@H](C)O)C(=O)N1CCC[C@@H]1C(=O)N1C[C@@H](NC(=O)CCOCCOCCOCCOCCOCCOCCOCCOCCn3cc(CCCCNC(=O)Nc4ccc5c(c4)Cc4cc(O[C@H]6O[C@H](CCP(=O)(O)O)[C@@H](O)[C@H](O)[C@@H]6O)ccc4-5)nn3)C[C@H]1C(=O)N[C@@H](CC(=O)O)C(=O)N2 [Compound 12]	degradation of IgG	< 50				
CC(C)C[C@@H]1NC(=O)[C@H](Cc2cnc[nH]2)NC(=O)[C@H](Cc2c[nH]c3ccccc23)NC(=O)[C@H](C)NC(=O)[C@@H]2CSSC[C@H](NC(=O)[C@H](Cc3c[nH]c4ccccc34)CC(=O)[C@H](C(C)C)NC(=O)[C@H](CC(C)C)NC(=O)[C@H](CCC(=O)O)NC(=O)CNC1=O)C(=O)N[C@@H]([C@@H](C)O)C(=O)N1CCC[C@@H]1C(=O)N1C[C@@H](NC(=O)COCCOCCOCC(=O)NC(COCCC(=O)NCCOCCn3cc(CCO[C@H]4O[C@H](CCP(=O)(O)O)[C@@H](O)[C@H](O)[C@@H]4O)nn3)(COCCC(=O)NCCOCCn3cc(CCO[C@H]4O[C@H](CCP(=O)(O)O)[C@@H](O)[C@H](O)[C@@H]4O)nn3)COCCC(=O)NCCOCCn3cc(CCO[C@H]4O[C@H](CCP(=O)(O)O)[C@@H](O)[C@H](O)[C@@H]4O)nn3)C[C@H]1C(=O)N[C@@H](CC(=O)O)C(=O)N2 [Compound 5]	degradation of IgG	50 to 250	< 50			degradation of coadministered human IgG (percent of initial hIgG over time) [4]: degradation of coadministered human IgG
CC(C)C[C@@H]1NC(=O)[C@H](Cc2cnc[nH]2)NC(=O)[C@H](Cc2c[nH]c3ccccc23)NC(=O)[C@H](C)NC(=O)[C@@H]2CSSC[C@H](NC(=O)[C@H](Cc3c[nH]c4ccccc34)CC(=O)[C@H](C(C)C)NC(=O)[C@H](CC(C)C)NC(=O)[C@H](CCC(=O)O)NC(=O)CNC1=O)C(=O)N[C@@H]([C@@H](C)O)C(=O)N1CCC[C@@H]1C(=O)N1C[C@@H](NC(=O)CCOCCOCCOCCN(CCOCCOCCOCCn3cc(CCO[C@H]4O[C@H](CCP(=O)(O)O)[C@@H](O)[C@H](O)[C@@H]4O)nn3)CCOCCOCCOCCn3cc(CCO[C@H]4O[C@H](CCP(=O)(O)O)[C@@H](O)[C@H](O)[C@@H]4O)nn3)C[C@H]1C(=O)N[C@@H](CC(=O)O)C(=O)N2 [Compound 9]			< 50			
CC(C)C[C@@H]1NC(=O)[C@H](Cc2c[nH]cn2)NC(=O)[C@H](Cc2c[nH]c3ccccc23)NC(=O)[C@H](C)NC(=O)[C@@H]2CSSC[C@H](NC(=O)[C@H](Cc3c[nH]c4ccccc34)NC(=O)[C@H](C(C)C)NC(=O)[C@H](CC(C)C)NC(=O)[C@H](CCC(=O)O)NC(=O)CNC1=O)C(=O)N[C@@H]([C@@H](C)O)C(=O)N1CCC[C@@H]1C(=O)N1C[C@@H](NC(=O)COCCOCCOCC(=O)NC(COCCC(=O)NCCOCCn3cc([C@H]4O[C@H](CCP(=O)(O)O)[C@@H](O)[C@H](O)[C@@H]4O)nn3)(COCCC(=O)NCCOCCn3cc([C@H]4O[C@H](CCP(=O)(O)O)[C@@H](O)[C@H](O)[C@@H]4O)nn3)COCCC(=O)NCCOCCn3cc([C@H]4O[C@H](CCP(=O)(O)O)[C@@H](O)[C@H](O)[C@@H]4O)nn3)C[C@H]1C(=O)N[C@@H](CC(=O)O)C(=O)N2 [Compound 2]	degradation of IgG	< 50	< 50			
CC(C)C[C@@H]1NC(=O)[C@H](Cc2c[nH]cn2)NC(=O)[C@H](Cc2c[nH]c3ccccc23)NC(=O)[C@H](C)NC(=O)[C@@H]2CSSC[C@H](NC(=O)[C@H](Cc3c[nH]c4ccccc34)NC(=O)[C@H](C(C)C)NC(=O)[C@H](CC(C)C)NC(=O)[C@H](CCC(=O)O)NC(=O)CNC1=O)C(=O)N[C@@H]([C@@H](C)O)C(=O)N1CCC[C@@H]1C(=O)N1C[C@@H](NC(=O)CCOCCOCCOCCOCCOCCOCCOCCOCCn3cc([C@H]4O[C@H](CCP(=O)(O)O)[C@@H](O)[C@H](O)[C@@H]4O)nn3)C[C@H]1C(=O)N[C@@H](CC(=O)O)C(=O)N2 [Compound 8]	degradation of IgG	< 50				EC50 ([3]; biotinylated IgG1 and His-tagged hIGF-IIR, 60 nM each, read-out: TCF (HTRF) EC50): < 50 nM
B1				< 50	< 50	
B2					< 50	EC50 [7]: > 50 nM and < 250 nM
B3				< 50	< 50	
B4				< 50	< 50	
